Laboratory results published in paper PMC11589570, “Critical assessment of LC3/GABARAP ligands used for degrader development and ligandability of LC3/GABARAP binding pockets” (Nature Communications, 2024).
Several values for one entry are separate records, joined by “and”; a condition that tells them apart may be missing. Equal values may be shown once.

Key:
[1] = target: LC3B (Homo sapiens, UniProt Q9GZQ8); assay: FP assay with Cy5-labelled p62 LIR tracer (protein titration and tracer displacement); type: binding; conditions: for normalized FP signal, p62 LIR tracer displacement: LC3B; for compound titration LC3B (displacement curve, FP signal): two replicate columns per compound
[2] = target: LC3A (Homo sapiens, UniProt Q9H492); assay: Isothermal titration calorimetry (ITC); type: binding; conditions: LC3A
Source text: To minimize nonspecific dilution heat effects, DMSO concentrations in the protein and compound samples were matched. […] For this protocol, the chamber was pre-equilibrated with the protein, and the test compounds were titrated while continuously measuring the rate of exothermic heat evolution. The heat of binding was integrated, corrected, and fitted to an independent single-binding site model based on the manufacturer’s instructions, from which thermodynamic parameters (ΔH and TΔS), equilibrium association and dissociation constants (KA and KD, respectively), and stoichiometry (n) were calculated using TA Instruments NanoAnalyze software.

[3] = tested on: U2OS cells; assay: Cell growth assay (IncuCyte confluence over 72 h); type: cell-based; set-up: key to U2OS cell growth: % of well area covered by cells (confluence); conditions: listed as 8F20
Procedure, shortened: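 U2OS cells were grown in DMEM with 10% FBS for 24 h before treatment. Confluence was then tracked by IncuCyte phase imaging over 72 h and expressed as % of well area covered by cells. Each point is the average of three wells.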

[4] = log10 concentration [M] -3.82391
[5] = log10 concentration [M] -4.1549
[6] = log10 concentration [M] -4.60206
[7] = log10 concentration [M] -5.30103
[8] = log10 concentration [M] -5.69897
[9] = log10 concentration [M] -6.22185
[10] = log10 concentration [M] -6.69897
[11] = log10 concentration [M] -7.30103
[12] = log10 concentration [M] -7.79588
[13] = log10 concentration [M] -8.08092

## Cc1ccc(C(=O)N(CCCN)[C@@H](c2nc3cc(Cl)ccc3c(=O)n2Cc2ccccc2)C(C)C)cc1 [compound 3, (R)-N-(3-aminopropyl)-N-(1-(3-benzyl-7-chloro-4-oxo-3,4-dihydroquinazolin-2-yl)−2-methylpropyl)−4-methylbenzamide]
[1]; [4]
  normalized FP signal, p62 LIR tracer displacement: 79.4737 and 100.789
  compound titration LC3B (displacement curve, FP signal): 79.4737 and 100.789
[1]; [5]
  normalized FP signal, p62 LIR tracer displacement: 91.0526 and 93.9474
  compound titration LC3B (displacement curve, FP signal): 91.0526 and 93.9474
[1]; [6]
  normalized FP signal, p62 LIR tracer displacement: 98.6842 and 96.3158
  compound titration LC3B (displacement curve, FP signal): 98.6842 and 96.3158
[1]; log10 concentration [M] -5
  normalized FP signal, p62 LIR tracer displacement: 92.3684 and 100.263
  compound titration LC3B (displacement curve, FP signal): 92.3684 and 100.263
[1]; [7]
  normalized FP signal, p62 LIR tracer displacement: 95.7895 and 96.5789
  compound titration LC3B (displacement curve, FP signal): 95.7895 and 96.5789
[1]; [8]
  normalized FP signal, p62 LIR tracer displacement: 95.5263 and 96.0526
  compound titration LC3B (displacement curve, FP signal): 95.5263 and 96.0526
[1]; [9]
  normalized FP signal, p62 LIR tracer displacement: 92.1053 and 92.3684
  compound titration LC3B (displacement curve, FP signal): 92.1053 and 92.3684
[1]; [10]
  normalized FP signal, p62 LIR tracer displacement: 97.6316 and 96.5789
  compound titration LC3B (displacement curve, FP signal): 97.6316 and 96.5789
[1]; [11]
  normalized FP signal, p62 LIR tracer displacement: 93.1579 and 99.7368
  compound titration LC3B (displacement curve, FP signal): 93.1579 and 99.7368
[1]; [12]
  normalized FP signal, p62 LIR tracer displacement: 100.263 and 96.8421
  compound titration LC3B (displacement curve, FP signal): 100.263 and 96.8421
[1]; [13]
  normalized FP signal, p62 LIR tracer displacement: 95.2632 and 96.3158
  compound titration LC3B (displacement curve, FP signal): 95.2632 and 96.3158
[2]
  outcome of ITC titration: did not yield significant binding heats
[3]; 100 nM, time 34 h
  U2OS cell growth: 22.2522 and 20.3197 and 25.5047
[3]; 100 nM, time 36 h
  U2OS cell growth: 25.043 and 22.9919 and 27.5453
[3]; 100 nM, time 38 h
  U2OS cell growth: 34.8117 and 27.203 and 36.419
[3]; 100 nM, time 40 h
  U2OS cell growth: 28.7682 and 25.0593 and 31.2523
[3]; 100 nM, time 42 h
  U2OS cell growth: 28.8457 and 26.5057 and 32.2617
[3]; 100 nM, time 44 h
  U2OS cell growth: 31.3439 and 34.6421 and 31.7152
[3]; 100 nM, time 46 h
  U2OS cell growth: 34.3656 and 30.4353 and 36.3708
[3]; 500 nM, time 34 h
  U2OS cell growth: 26.6194 and 31.3484 and 27.2425
[3]; 500 nM, time 36 h
  U2OS cell growth: 31.7612 and 33.804 and 33.4668
[3]; 500 nM, time 38 h
  U2OS cell growth: 33.118 and 34.4569 and 30.251
[3]; 500 nM, time 40 h
  U2OS cell growth: 39.6842 and 38.1992 and 33.6035
[3]; 500 nM, time 42 h
  U2OS cell growth: 36.1441 and 40.2893 and 34.3307
[3]; 500 nM, time 44 h
  U2OS cell growth: 39.8612 and 39.5559 and 35.4494
[3]; 1 uM, time 34 h
  U2OS cell growth: 32.3197 and 36.2486 and 28.9643
[3]; 1 uM, time 36 h
  U2OS cell growth: 35.3333 and 38.6378 and 32.1258
[3]; 1 uM, time 38 h
  U2OS cell growth: 37.1941 and 39.9036 and 33.4921
[3]; 1 uM, time 40 h
  U2OS cell growth: 42.2479 and 44.6121 and 35.334
[3]; 1 uM, time 42 h
  U2OS cell growth: 42.2672 and 42.3728 and 37.7313
[3]; 1 uM, time 44 h
  U2OS cell growth: 41.5555 and 43.3678 and 38.4367
[3]; 1 uM, time 46 h
  U2OS cell growth: 37.0733
[3]; 3 uM, time 34 h
  U2OS cell growth: 24.9204 and 26.3201 and 25.7719
